US20250000876A1, “Novel therapeutic agent for inflammatory disease” (Gachon University of Industry-Academic cooperation …, priority 2020, published 2025)

Columns and labels:
[1] = Hydrodynamic size distribution, potential and polydispersity index (Zetasizer Nano); format: physicochemical
[2] = system: macrophages treated with TNF-α-activated FLSs medium; test: Macrophage repolarization after TNF-α-activated FLSs medium; format: cell-based
Description: (§1) To measure cytokine expression, RT-PCR (CFX 384, Bio-Rad, Hercules, CA, USA) was performed according to the manufacturer's protocol. […] Then, total RNA was isolated from cells (5×10^5 cells/well in a total of 6-well plates) using TRIzol (15596018, Thermo Fisher Scientific) and first strand complementary DNA (cDNA) using RT premix (Promega) was synthesized. Reverse transcription conditions were carried out at 45° C. for 60 minutes and at 95° C. for 5 minutes. Briefly, in each final reaction tube, 2 μL of cDNA (1 μg), 1 μL of sense and antisense primer solutions (0.4 μM), 12.5 μL of SYBR Premix Ex Taq (Takara Bio Inc.) and 9.5 μL of dH2O. The cycle threshold (Ct) value was calculated using the CFX96 Real-Time PCR Detection System (Bio-Rad) software, and the comparative Ct method (2ΔΔCt model) was used to calculate the relative fold change of gene expression. It was then normalized to mean GAPDH expression.
Macrophages of the synovium can stimulate pro-inflammatory FLSs activity by infiltrating inflamed tissues and increasing pro-inflammatory cytokine levels (M. Asif Amin et al., Semin. Immunopathol., 39 (4): 385-393, 2017). For this reason, modulating macrophage differentiation (ie, repolarization) is important in alleviating arthritis disease (J. Kim et al., ACS Nano, 13 (3): 3206-3217, 2019).

[3] = system: CIA-induced mice; test: Collagen-induced arthritis (CIA) model; format: in vivo, DBA/1 mice; details: for paw edema and paw score: ankle joint, 48 days
Description: DBA/1 mice (male, 4-6 weeks old, body weight 20-25 g) were purchased from Orient Bio (Seoul, Korea) and the mice were subjected to a 12-hour light/dark cycle (lit at 6:30 AM) for 7-14 days. They were placed in a specific pathogen-free environment with temperature and humidity controlled and acclimatized before the experiment. All animal experiments were performed according to the Gachon University Laboratory Animal Care and Use Guide. […] Animals with […] arthritis were randomly assigned to 6 groups (n=6) after the first signs of inflammation were observed on day 27.
The status of RA was assessed visually by grading paw swelling according to the following criteria: 0, no swelling; 1, inflammation and swelling in one toe; 2, more than one toe, but inflammation and swelling throughout the foot; 3, moderate swelling of the entire foot; 4, Severe erythema and swelling of the entire foot and ankle (H. E. Scales, et al., Rheumatology (Oxford) 55 (3): 564-572, 2016). A total score of four paws was recorded for each mouse as the arthritis index. […] Each treatment group was administered twice weekly for 3 weeks, 2 mg/kg or 5 mg/kg condition, and the arthritis index of each group was recorded over time. After 3 weeks of treatment, mice were sacrificed, and limbs were collected and histological analysis was performed.
Histopathology was evaluated to determine the characteristics of RA including macrophage phenotype, synovitis and cartilage destruction. Specifically, on day 48, the mice were sacrificed and the ankle joint was recovered. The […] was fixed in 4% paraformaldehyde at 4° C. for 3 days, transferred to a descaling solution (Sigma), and left on an orbital shaker. Then, the tissue was decalcified at room temperature for 14 days, and the non-calcified ankle joint was embedded in paraffin and then cut into 3 μm using a microtome. For immunofluorescence histochemistry, tissue sections were dewaxed and TNF-α (Abcam, ab1793), IL-1β (Abcam, ab9722), IL-6 (Abcam, ab7737), INF-γ (Novus Biotech, NBP1), CD86 (Invitrogen, 13-0862-82), and Dectin-1 (Abcam, ab140039) were stained with primary antibodies. The secondary antibodies used in the present invention are goat anti-rat Alexa Fluor 488 (Abcam) for INF-γ, goat anti-mouse Alexa Fluor 488 (Abcam) for TNF-α, goat anti-mouse Alexa Fluor 568 for CD86 (Abcam), goat anti-rabbit Alexa Fluor 488 (Abcam) for IL-1β and IL-6 and goat anti-rabbit Alexa Fluor 568 (Abcam) for Dectin-1. The tissue sections were then stained with DAPI mounting solution and observed using a confocal fluorescence microscope (LSM700, Carl Zeiss) and EVOS M7000, Invitrogen. Fluorescence intensity was also quantified using ImageJ, Zen Lite (Zeiss) and Celleste (Invitrogen).

[4] = H2O2 decomposition and O2 production analysis; details: after 24 hours, pH 7.4
Description: Then, 50 μl of the solution was added to a solution of 100 μL of Ti (SO4)2 containing 1.33 mL of 24% Ti(SO4)2 and 8.33 mL of H2SO4 in 50 mL of deionized water after 24 hours. After the reaction was completed, the absorbance of the solution was measured at 405 nm to evaluate the H2O2 concentration.
We performed H2O2-scavenging effect of AuNPs and intracellular ROS analysis before pro-inflammatory cytokine secretion assay. Specifically, after treatment with Triamcinolone and AuNPs under physiological conditions (pH 7.4), concentration of H2O2 was analyzed.

[5] = system: M1-activated FLS; test: Cytokine expression in FLSs activated with M1 macrophage conditioned medium; format: cell-based, human
Description: as §1
Recently, the role of macrophages in inflamed synovial membranes has been of great interest due to the inflammatory effects of these cells during pathogens of RA and OA in joints (A. Kennedy et al., Front. Immunol., 2:52, 2011). The present inventors therefore investigated the stimulation of FLS pro-inflammatory activity by activated M1 macrophage cytokines (from LPS-treated J774 cells to conditioned medium).

| electric potential caused by the surface charge ([1]; Example 9, Dex series) | hydrodynamic size ([1]; Example 9, Dex series) | electric potential caused by the surface charge ([1]; Example 1, Triam series) | hydrodynamic size ([1]; Example 1, Triam series) | SMILES | M2 response (IL-4, Arg-1 and IL-10 expression) [2] | inflammatory marker levels (TNF-α, IL-1β and IL-6 expression) [2] | level of CD86 (M1 marker) in ankle joint ([3]; 2 mg/kg) | level of Dectin-1 (M2 marker) in ankle joint ([3]; 2 mg/kg) | paw edema and paw score ([3]; 2 mg/kg) | level of CD86 (M1 marker) in ankle joint ([3]; 5 mg/kg) | level of Dectin-1 (M2 marker) in ankle joint ([3]; 5 mg/kg) | paw edema and paw score ([3]; 5 mg/kg) | reduction of H2O2 concentration [4] | level of FLSs pro-inflammatory cytokines (TNF-α, IL-1β and IL-6) ([5]; FLSs treated with M1 medium) | anti-inflammatory mRNA (IL-4, IL-10 and Arg-1) synthesis ([5]; M1-activated FLS) |
| --- | --- | --- | --- | --- | --- | --- | --- | --- | --- | --- | --- | --- | --- | --- | --- |
| neutrally charged | 125 nm | – | – | C[C@@H]1C[C@H]2[C@@H]3CCC4=CC(=O)C=C[C@]4(C)[C@@]3(F)[C@@H](O)C[C@]2(C)[C@@]1(O)C(=O)CO [free Dex, dexamethasone] | – | – | – | – | – | – | – | – | – | – | – |
| – | – | approached neutral charges | 75 nm | C[C@]12C=CC(=O)C=C1CC[C@H]1[C@@H]3C[C@@H](O)[C@](O)(C(=O)CO)[C@@]3(C)C[C@H](O)[C@@]12F [Triam, Triamcinolone] | did not induce noticeable M2 marker expression | decreased significantly | reduced the level of the M1 marker | did not sufficiently restore the level of the M2 marker | did not show sufficient effect | reduced the level of the M1 marker | did not sufficiently restore the level of the M2 marker | did not show sufficient effect | about 48% | effectively reduced | did not induce anti-inflammatory cytokine release |
